What all share (type): in vivo
Experiment [1] relates to Botrytis cinerea. Briefly: Effect on Cucumber gray mold (cotyledon paper disc test). Conditions: 3 days after inoculation.
Experiment [2] has as its system Puccinia recondita. Briefly: Effect on Wheat brown rust (preventive spray test). Conditions: 7 days after inoculation.
For experiment [3], the system named is Psecidoperonospora cubensis. Briefly: Effect on Cucumber downy mildew (preventive spray test). Conditions: 7 days after inoculation.
Experiment [4] deals with Chochliobolus miyabeanus. Briefly: Effect on Rice brown spot (preventive spray test). Conditions: 7 days after inoculation.
The subject of experiment [5] is Phytophthora infestans. Conditions: Tomato late blight, 5 days after inoculation.
Experiment [6] concerns Erysiphe graminis. Briefly: Effects on Barley powdery mildew (preventive spray test). Conditions: lesions counted seven days after inoculation.
In experiment [7] the test system is Pyricularia oryzae. Conditions: Rice blast, 7 days after inoculation.
Setting [8] is: conc. of active ingredient 20 ppm.
Where [9] appears, read: conc. of active ingredient 100 ppm.
The mark [10] stands for this setting: conc. of active ingredient 4 ppm.

Like-named read-outs stand apart in the source and are kept apart here.

Turning to `CNC(=O)/C(=N/OC)c1ccccc1COc1ccc2c(c1)OCC2=NOC(C)C` [a-40], the “Preventive rate (%)” value in experiment [1] (setting [8]) is listed as 100%; in experiment [1] (setting [9]), 100%; in experiment [2] (setting [8]) it was 97%; in experiment [2] (setting [9]), 100%; in experiment [3] (setting [8]), 97%; in experiment [3] (setting [9]), 100%.
For the compound `C#CCON=C1CCc2c1ccc(OCc1ccccc1C(=NOC)C(=O)NC)c2C` [e-61], the “Preventive rate (%)” value in experiment [4] (setting [10]) is given as 84%; in experiment [4] (setting [8]), 90%; in experiment [4] (setting [9]), 90%; in experiment [5] (setting [8]), 98%; in experiment [5] (setting [9]), 100%; in experiment [6] (setting [8]), 98%. Moreover, the “Preventive rate (%)” value in experiment [2] (setting [10]), in experiment [2] (setting [8]), in experiment [2] (setting [9]), in experiment [3] (setting [10]), in experiment [3] (setting [8]) and in experiment [3] (setting [9]) was 100% each time.
Consider `CNC(=O)C(=NOC)c1ccccc1COc1ccc2c(c1C)OCCC2=NOC` [c-16], for which the “Preventive rate (%)” value worked out at 84% in experiment [5] (setting [10]); 100% in experiment [5] (setting [8]); 100% in experiment [5] (setting [9]); 91% in experiment [7] (setting [8]); 100% in experiment [7] (setting [9]); 100% in experiment [6] (setting [8]). Besides, the “Preventive rate (%)” value was determined as 100% in experiment [6] (setting [9]); 49% in experiment [1] (setting [8]); 60% in experiment [1] (setting [9]); 100% in experiment [2] (setting [8]); 100% in experiment [2] (setting [9]).
Turning to `C#CCON=C1COc2c1ccc(OCc1ccccc1/C(=N\OC)C(=O)NC)c2C` [a-71], the “Preventive rate (%)” value is listed as 89% in experiment [7] (setting [8]); 91% in experiment [7] (setting [9]); 100% in experiment [6] (setting [8]); 100% in experiment [6] (setting [9]); 100% in experiment [1] (setting [8]); 100% in experiment [1] (setting [9]). The “Preventive rate (%)” value in experiment [2] (setting [10]), in experiment [2] (setting [8]), in experiment [2] (setting [9]), in experiment [3] (setting [10]), in experiment [3] (setting [8]) and in experiment [3] (setting [9]) was 100% throughout.
As to `COC=C(C(=O)OC)c1ccccc1COc1ccc2c(c1C)C(C)CC2=NOC` (racemic) [f-5], the “Preventive rate (%)” value in experiment [4] (setting [10]) is on record as 53%; in experiment [4] (setting [8]), 94%; in experiment [4] (setting [9]), 98%; in experiment [5] (setting [10]), 92%; in experiment [5] (setting [8]) it was 100%; in experiment [5] (setting [9]) it was 100%. Besides, the “Preventive rate (%)” value in experiment [7] (setting [10]) is 72%; in experiment [7] (setting [8]) it was 89%; in experiment [7] (setting [9]), 94%; in experiment [6] (setting [10]), 97%; in experiment [6] (setting [8]), 100%; in experiment [6] (setting [9]) it was 100%. For the same compound, the “Preventive rate (%)” value in experiment [2] (setting [10]) worked out at 100%; in experiment [2] (setting [8]), 100%; in experiment [2] (setting [9]), 100%; in experiment [3] (setting [10]), 99%; in experiment [3] (setting [8]), 100%; in experiment [3] (setting [9]), 100%.
For the compound `CON=C1c2ccc(OCc3ccccc3/C(=N\OC)C(=O)OC)c(C)c2OC1C` (stereo not shown) [b-6], the “Preventive rate (%)” value is on record as 70% in experiment [4] (setting [8]); 90% in experiment [4] (setting [9]); 92% in experiment [5] (setting [8]); 94% in experiment [5] (setting [9]); 84% in experiment [7] (setting [8]); 88% in experiment [7] (setting [9]). The “Preventive rate (%)” value in experiment [6] (setting [8]) was 89%; in experiment [6] (setting [9]), 90%; in experiment [3] (setting [8]), 100%; in experiment [3] (setting [9]) it was 100%.
For the compound `CCCON=C1COc2c1ccc(OCc1ccccc1/C(=N\OC)C(=O)NC)c2C` [a-42], the “Preventive rate (%)” value in experiment [4] (setting [8]) turned out to be 85%; in experiment [4] (setting [9]) it was 91%; in experiment [5] (setting [8]), 98%; in experiment [5] (setting [9]) it was 98%; in experiment [7] (setting [8]), 90%; in experiment [7] (setting [9]), 98%. The “Preventive rate (%)” value worked out at 88% in experiment [6] (setting [8]); 100% in experiment [6] (setting [9]); 100% in experiment [2] (setting [10]); 100% in experiment [2] (setting [8]); 100% in experiment [2] (setting [9]); 100% in experiment [3] (setting [10]). Moreover, the “Preventive rate (%)” value in experiment [3] (setting [8]) and in experiment [3] (setting [9]) was 100% throughout.
For `CON=C1COc2c1ccc(OCc1ccccc1/C(=N\OC)C(=O)OC)c2C` [a-15], the “Preventive rate (%)” value in experiment [5] (setting [8]) is 81%; in experiment [5] (setting [9]) it was 94%; in experiment [1] (setting [8]), 73%; in experiment [1] (setting [9]), 96%; in experiment [2] (setting [10]) it was 96%; in experiment [2] (setting [8]), 96%. Further, the “Preventive rate (%)” value in experiment [2] (setting [9]) is reported as 100%.
With `CON=C(C(=O)OC)c1ccccc1COc1ccc2c(c1C)OCCC2=NOC` [c-15], the “Preventive rate (%)” value was 97% in experiment [4] (setting [8]); 100% in experiment [4] (setting [9]); 84% in experiment [5] (setting [10]); 94% in experiment [5] (setting [8]); 100% in experiment [5] (setting [9]); 80% in experiment [7] (setting [8]). The “Preventive rate (%)” value in experiment [7] (setting [9]) is on record as 100%; in experiment [6] (setting [10]) it was 100%; in experiment [6] (setting [8]), 100%; in experiment [6] (setting [9]) it was 100%; in experiment [1] (setting [8]) it was 75%; in experiment [1] (setting [9]) it was 77%. In addition, the “Preventive rate (%)” value in experiment [2] (setting [8]) is reported as 100%; in experiment [2] (setting [9]) it was 100%; in experiment [3] (setting [10]), 81%; in experiment [3] (setting [8]), 100%; in experiment [3] (setting [9]) it was 100%.
On to `CNC(=O)C(OC)c1ccccc1COc1ccc2c(c1)OCC2=NOC` (racemic) [a-11], for which the “Preventive rate (%)” value in experiment [6] (setting [8]) is 88%; in experiment [6] (setting [9]), 100%; in experiment [1] (setting [8]) it was 40%; in experiment [1] (setting [9]), 87%; in experiment [2] (setting [8]), 88%; in experiment [2] (setting [9]) it was 100%.
For the compound `COC=C(C(=O)OC)c1ccccc1COc1ccc2c(c1)OCC2=NOC` [a-2], the “Preventive rate (%)” value was 93% in experiment [4] (setting [8]); 96% in experiment [4] (setting [9]); 97% in experiment [5] (setting [10]); 97% in experiment [5] (setting [8]); 100% in experiment [5] (setting [9]); 95% in experiment [7] (setting [8]). Moreover, the “Preventive rate (%)” value worked out at 97% in experiment [7] (setting [9]); 79% in experiment [6] (setting [8]); 100% in experiment [6] (setting [9]); 98% in experiment [2] (setting [10]); 100% in experiment [2] (setting [8]); 100% in experiment [2] (setting [9]). Also, the “Preventive rate (%)” value in experiment [3] (setting [8]) and in experiment [3] (setting [9]) was 100% throughout.
Turning to `CCON=C1COc2c1ccc(OCc1ccccc1/C(=N\OC)C(=O)NC)c2C` [a-36], the “Preventive rate (%)” value in experiment [4] (setting [10]) is 69%; in experiment [4] (setting [8]), 93%; in experiment [4] (setting [9]) it was 96%; in experiment [5] (setting [8]), 91%; in experiment [5] (setting [9]), 98%; in experiment [7] (setting [8]) it was 90%. The “Preventive rate (%)” value turned out to be 99% in experiment [7] (setting [9]); 100% in experiment [2] (setting [10]); 100% in experiment [2] (setting [8]); 100% in experiment [2] (setting [9]); 100% in experiment [3] (setting [8]); 100% in experiment [3] (setting [9]).
Regarding `CON=C1CCc2cc(OCc3ccccc3C(=NOC)C(=O)OC)c(C)cc21` [e-26], the “Preventive rate (%)” value in experiment [4] (setting [8]) stood at 71%; in experiment [4] (setting [9]), 91%; in experiment [5] (setting [8]), 97%; in experiment [5] (setting [9]) it was 100%; in experiment [6] (setting [8]), 100%; in experiment [6] (setting [9]), 100%. Moreover, the “Preventive rate (%)” value worked out at 98% in experiment [2] (setting [8]); 98% in experiment [2] (setting [9]); 75% in experiment [3] (setting [10]); 100% in experiment [3] (setting [8]); 100% in experiment [3] (setting [9]).
For the compound `CNC(=O)/C(=N/OC)c1ccccc1COc1ccc2c(c1)OCC2=NOC/C=C/Cl` [a-63], the “Preventive rate (%)” value in experiment [6] (setting [10]) was found to be 99%; in experiment [6] (setting [8]), 100%; in experiment [6] (setting [9]), 100%; in experiment [1] (setting [8]), 100%; in experiment [1] (setting [9]), 100%; in experiment [3] (setting [8]), 100%. Moreover, the “Preventive rate (%)” value in experiment [3] (setting [9]) is reported as 100%.
With `CON=C1COc2cc(OCc3ccccc3/C(=N\OC)C(=O)OC)c(C)cc21` [a-26], the “Preventive rate (%)” value is listed as 81% in experiment [5] (setting [8]); 100% in experiment [5] (setting [9]); 72% in experiment [1] (setting [8]); 87% in experiment [1] (setting [9]); 100% in experiment [2] (setting [10]); 100% in experiment [2] (setting [8]). Moreover, the “Preventive rate (%)” value in experiment [2] (setting [9]), in experiment [3] (setting [8]) and in experiment [3] (setting [9]) was 100% in each case.
